Measured values taken from PubChem BioAssay (NCI).
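How tested: cells in 96-well plates exposed to compound for 48 hours at five concentrations. GI50 marks 50% less growth. TGI denotes the concentration required for complete inhibition of growth.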

Tests used:
Assay in all cases: NCI-60 cell line screen, 48 h
[1] = test system: DU-145 prostate
[2] = test system: MCF7 breast
[3] = test system: HOP-62 NSCLC
[4] = test system: UACC-257 melanoma
[5] = test system: HS 578T breast
[6] = test system: HCT-116 colon
[7] = test system: HCC-2998 colon
[8] = test system: A498 renal
[9] = test system: SK-MEL-2 melanoma
[10] = test system: OVCAR-3 ovarian
[11] = test system: HOP-92 NSCLC
[12] = test system: BT-549 breast
[13] = test system: 786-0 renal
[14] = test system: A549 NSCLC
[15] = test system: NCI-H460 lung
[16] = test system: M14 melanoma
[17] = test system: SN12C renal
[18] = test system: RXF 393 renal
[19] = test system: OVCAR-5 ovarian
[20] = test system: OVCAR-8 ovarian
[21] = test system: SNB-19 CNS
[22] = test system: HL-60(TB) leukemia
[23] = test system: OVCAR-4 ovarian
[24] = test system: TK-10 renal
[25] = test system: CAKI-1 renal
[26] = test system: T-47D breast
[27] = test system: LOX IMVI melanoma
[28] = test system: SF-268 CNS
[29] = test system: SW-620 colon
[30] = test system: KM12 colon
[31] = test system: ACHN renal
[32] = test system: RPMI-8226 leukemia
[33] = test system: NCI-H522 lung
[34] = test system: SF-295 CNS
[35] = test system: UO-31 renal
[36] = test system: MOLT-4 leukemia
[37] = test system: MDA-MB-435
[38] = test system: MDA-MB-231 breast
[39] = test system: UACC-62 melanoma
[40] = test system: SR leukemia
[41] = test system: U251 CNS
[42] = test system: EKVX NSCLC
[43] = test system: NCI-H226 lung
[44] = test system: HT29 colon
[45] = test system: PC-3 prostate
[46] = test system: HCT-15 colon
[47] = test system: SNB-75 CNS
[48] = test system: K-562 leukemia
[49] = test system: IGROV1 ovarian
[50] = test system: SF-539 CNS
[51] = test system: NCI-H23 lung
[52] = test system: NCI/ADR-RES ovarian
[53] = test system: SK-MEL-28 melanoma
[54] = test system: SK-MEL-5 melanoma
[55] = test system: MALME-3M melanoma
[56] = test system: COLO 205 colon

## CN1CCN(c2ccc(NC3=C(Cl)C(=O)c4ncccc4C3=O)cc2C(F)(F)F)CC1
[1]
  GI50: 1.91 µM
  TGI: 3.71 µM
[2]
  GI50: 1.7 µM
  TGI: 4.23 µM
[3]
  GI50: 17.4 µM
  TGI: 37.1 µM
[4]
  GI50: 1.62 µM
  TGI: 3.09 µM
[5]
  GI50: 3.31 µM
  TGI: 42.3 µM
[6]
  GI50: 1.69 µM
  TGI: 3.27 µM
[7]
  GI50: 7.51 µM
  TGI: 20.8 µM
[8]
  GI50: 11.3 µM
  TGI: 24.2 µM
[9]
  GI50: 3.32 µM
  TGI: 8.79 µM
[10]
  GI50: 0.297 µM
  TGI: 1.11 µM
[11]
  GI50: 1.58 µM
  TGI: 3.03 µM
[12]
  GI50: 13 µM
  TGI: 26.3 µM
[13]
  GI50: 1.84 µM
  TGI: 3.32 µM
[14]
  GI50: 18.8 µM
  TGI: 38 µM
[15]
  GI50: 17.4 µM
  TGI: 34.8 µM
[16]
  GI50: 1.78 µM
  TGI: 3.67 µM
[17]
  GI50: 1.79 µM
  TGI: 3.31 µM
[18]
  GI50: 1.52 µM
  TGI: 2.91 µM
[19]
  GI50: 2.2 µM
  TGI: 5.14 µM
[20]
  GI50: 3.14 µM
  TGI: 12.4 µM
[21]
  GI50: 13.6 µM
  TGI: 26.8 µM
[22]
  GI50: 1.79 µM
  TGI: 4.73 µM
[23]
  GI50: 1.09 µM
  TGI: 2.31 µM
[24]
  GI50: 1.92 µM
  TGI: 3.45 µM
[25]
  GI50: 1.72 µM
  TGI: 3.13 µM
[26]
  GI50: 1.33 µM
  TGI: 5.31 µM
[27]
  GI50: 1.53 µM
  TGI: 2.94 µM
[28]
  GI50: 3.3 µM
  TGI: 14 µM
[29]
  GI50: 1.35 µM
  TGI: 3.37 µM
[30]
  GI50: 14.4 µM
  TGI: 30.1 µM
[31]
  GI50: 1.48 µM
  TGI: 2.8 µM
[32]
  GI50: 0.874 µM
  TGI: 6.66 µM
[33]
  GI50: 1.63 µM
  TGI: 3.39 µM
[34]
  GI50: 16.6 µM
  TGI: 30.4 µM
[35]
  GI50: 1.5 µM
  TGI: 2.82 µM
[36]
  GI50: 0.304 µM
  TGI: 2.67 µM
[37]
  GI50: 1.79 µM
  TGI: 3.3 µM
[38]
  GI50: 1.69 µM
  TGI: 5.02 µM
[39]
  GI50: 1.88 µM
  TGI: 3.81 µM
[40]
  GI50: 0.355 µM
  TGI: 3.66 µM
[41]
  GI50: 4.45 µM
  TGI: 17 µM
[42]
  GI50: 2.66 µM
  TGI: 8.44 µM
[43]
  GI50: 13 µM
  TGI: 29.9 µM
[44]
  GI50: 2.34 µM
  TGI: 5.56 µM
[45]
  GI50: 2.23 µM
  TGI: 6.85 µM
[46]
  GI50: 1.39 µM
  TGI: 3 µM
[47]
  GI50: 5.44 µM
  TGI: 19.8 µM
[48]
  GI50: 0.435 µM
  TGI: > 100 µM
[49]
  GI50: 1.56 µM
  TGI: 3.18 µM
[50]
  GI50: 1.74 µM
  TGI: 3.53 µM
[51]
  GI50: 1.87 µM
  TGI: 3.87 µM
[52]
  GI50: 2.46 µM
  TGI: 7.47 µM
[53]
  GI50: 1.99 µM
  TGI: 3.45 µM
[54]
  GI50: 3.52 µM
  TGI: 13.3 µM
[55]
  GI50: 1.46 µM
  TGI: 2.83 µM
[56]
  GI50: 1.89 µM
  TGI: 4.63 µM
